Measured values reported in patent US20230000844A1, “BIOMARKERS FOR NANOPARTICLE COMPOSITIONS” (Abraxis BioScience, LLC, priority 2019, published 2023).
Each block holds one compound with its values, some of them ahead of it.

Tests used:
[1] = tested on: non-PEComa cancer with TSC1, TSC2 or mTOR mutation; test: ABI-009 Expanded Access Protocol: single-agent ABI-009 in non-PEComa patients with relevant mTOR pathway mutations; format: in vivo, human; parameters: key: CR: disappearance of all target lesions; PR: at least a 30% decrease in the sum of the longest diameters (SLD) of target lesions; SD: neither sufficient shrinkage of target lesions to qualify for PR, nor sufficient increase to qualify for PD; PD: at least a 20% increase in the SLD of target lesions; conditions: Patient #4, metastatic epithelial ovarian carcinoma
From the text: Seven patients were enrolled under ABI-009 Expanded Access Protocol. See Table 14 below for information about their tumor type, relevant mutation, failed prior therapy and response to ABI-009. ABI-009 was produced according to Example 7.

[2] = Stable isotope tracer ultrafiltration assay (SITUA) of rapamycin drug release from ABI-009 lots; format: physicochemical; conditions: 10 minutes incubation, 4.5% human serum albumin, 29° C.
Protocol: A study was also undertaken to analyze rapamycin drug release from 12 lots of ABI-009 (Lots #1-10 and Lots 14-15) using a stable isotope tracer ultrafiltration assay (SITUA) (see Skoczen et al., Stable Isotope Method to Measure Drug Release from Nanomedicines, J. Control Release, 220(A):169-174 (2015). Drug release was examined at 10 μg/ml and 500 μg/ml of rapamycin following 10 minutes of incubation. Briefly, stable, isotope-labeled rapamycin was spiked into 4.5% human serum albumin (25% Albutein HSA diluted in 0.9% saline). MeOH-solvent rapamycin (as a control) or fresh reconstituted samples of each lot at 10 μg/ml or 500 μg/ml were added. After 10 minutes of equilibration at 29° C., a portion of the sample is taken and filtered using Vivacon®) 10 kDa MWCO centrifuge devices prewarmed to 29° C. The sample and the ultrafiltrate are analyzed by LC-MS to determine the concentrations of normal rapamycin and isotope-labelled rapamycin. The ultrafilterable fraction of isotope-labeled rapamycin represents a measurement of free unbound fraction.
The encapsulated and unencapsulated nanoparticle fractions can also be calculated.

[3] = in vivo; cited from earlier work
ABCB1/ABCG2 = conditions: cited from earlier work
[4] = tested on: tumors with TSC1 or TSC2 mutations; conditions: 2/30 patients; cited from earlier work
malignant PEComa = test: Case: malignant PEComa patient (TSC1 mutation) who failed everolimus, then treated with nab-sirolimus; format: in vivo, human
Protocol: A post-menopausal person with family history of lymphoma in their parent and breast, ovarian cancer in a paternal aunt, presented with abnormal uterine bleeding in July 2018. […] Following this, a laparoscopic hysterectomy with bilateral salpingo-oophorectomy was performed and pathology was consistent with malignant PEComa which stained positive for smooth muscle actin, HMB-45 and Melan-A (59 mitoses per 10 hpf).
The primary tumor was locally advanced, and no metastatic disease was present at the time of diagnosis, adjuvant chemotherapy was not administered, and the patient was monitored with serial scans.
Upon disease progression, the patient was started on 10 mg everolimus orally daily.
After failure of treatment with everolimus, the patient was treated with nab-sirolimus at 100 mg/m^2 on day 1 and day 8 of a 21 day cycle started in July of 2019. They also received stereotactic radiosurgery to the metastatic lesion in their brain.

SMILES: CC(C)n1nc(-c2ccc3oc(N)nc3c2)c2c(N)ncnc21 [MLN0128]
- best response on prior MLN0128 [1]: SD

- Avg. Release (%) ([2]; 10 μg/ml rapamycin): 97.2%
- Avg. Release (%) ([2]; 500 μg/ml rapamycin): 18.3%
SMILES: CO[C@H]1C[C@@H]2CC[C@@H](C)[C@@](O)(O2)C(=O)C(=O)N2CCCC[C@H]2C(=O)O[C@H]([C@H](C)C[C@@H]2CC[C@@H](O)[C@H](OC)C2)CC(=O)[C@H](C)/C=C(\C)[C@@H](O)[C@@H](OC)C(=O)[C@H](C)C[C@H](C)/C=C/C=C/C=C/1C [Free rapamycin]

SMILES: COc1ccc(COc2cc3oc(=O)c4cc(C(C)O)ccc4c3cc2OC)cc1 (centres unmarked) [Palomid 529]
- brain penetration [3]: good brain penetration
- affinity for ABCB1/ABCG2 (ABCB1/ABCG2): lacks affinity

SMILES: CO[C@H]1C[C@@H]2CC[C@@H](C)[C@@](O)(O2)C(=O)C(=O)N2CCCC[C@H]2C(=O)O[C@H]([C@H](C)C[C@@H]2CC[C@@H](OCCO)[C@H](OC)C2)CC(=O)[C@H](C)/C=C(\C)[C@@H](O)[C@@H](OC)C(=O)[C@H](C)C[C@H](C)/C=C/C=C/C=C/1C [everolimus]
- responses in patients with TSC1 or TSC2 mutations [4]: 7%
- CT scan result 2 months after starting everolimus (malignant PEComa; everolimus 10 mg orally daily, reduced to 5 mg): progressive disease
- adverse event related to everolimus (malignant PEComa; three weeks after beginning 10 mg orally daily): hospitalized due to fever and headache
